The text below walks through data of patent US12440542B1, “Kits for preparing and delivering purified corticotropin” (ANI Pharmaceuticals, Inc., priority 2022, dated 2025).

For this experiment, the system named is THP-1 Blue, Raw Blue, HEK-blue hTLR3, HEK-Blue hTLR4, HEK-Blue hNOD2. Put plainly: Activation of innate immune response in reporter cell lines covering TLR and NOD2 expression. The note with it: 5 cell lines; 3 PPQ lots; highest drug substance concentration tested 10 μg/mL. The experiment is classed as cell-based. As to the method: Method development, qualification, and testing for activation of innate immune response was performed. The innate immune assays performed compared 3 PPQ lots. The work was conducted using 5 cell lines to cover TLR and NOD2 expression (THP-1 Blue, Raw Blue, HEK-blue hTLR3, HEK-Blue hTLR4, HEK-Blue hNOD2). […] The highest drug substance concentration tested was 10 μg/mL. A dose of the sterile preparation of purified corticotropin at 80 U is, equivalent to approximately 1 mg of drug substance per total body weight of subject.
Consider FSL-1, for which the “dose response in innate immune assays” value is “robust dose responses”. The entry for `CCCc1nc2c(N)nc3ccccc3c2s1` [CL075] is “robust dose responses”.

On to `CC(=O)N[C@@H]1[C@@H](O[C@H](C)C(=O)N[C@@H](C)C(=O)N[C@H](CCC(=O)O)C(N)=O)[C@H](O)[C@@H](CO)O[C@H]1O` [MDP], for which the “dose response in innate immune assays” value was “robust dose responses”.
